Patent US20230074252A1, “DOSAGES AND METHODS FOR TREATING PULMONARY ARTERIAL HYPERTENSION WITH RODATRISTAT” (Altavant Sciences GmbH, priority 2020, published 2023)
Entries after “also recorded” stand apart in the source; their conditions may differ. Where two headings read alike, the source gives them in different places.

Legend:
CYP2C19 = CYP2C19 (Homo sapiens, UniProt P33261); test: In vitro CYP substrate assessment (victim potential); type: in vitro ADME
CYP isoforms = test: Time-dependent CYP inhibition (overall statement); type: in vitro ADME, human
OATP1B3 [1] = target: T1, OATP1B3 (Homo sapiens, UniProt Q9NPD5); test: Transporter inhibition, HEK293 cells, estradiol-17β-glucuronide probe; type: in vitro ADME; settings: for Calculated Values, R-value, OATP1B3 / Potential for interaction? (transporter inhibitor), OATP1B3: predicted @ 600 mg BID; for IC50: read-out: In vitro IC50, OATP1B3
T1 construct: expressed in transfected cells; host or cells: HEK293
T1 sequence (Q9NPD5 1-702): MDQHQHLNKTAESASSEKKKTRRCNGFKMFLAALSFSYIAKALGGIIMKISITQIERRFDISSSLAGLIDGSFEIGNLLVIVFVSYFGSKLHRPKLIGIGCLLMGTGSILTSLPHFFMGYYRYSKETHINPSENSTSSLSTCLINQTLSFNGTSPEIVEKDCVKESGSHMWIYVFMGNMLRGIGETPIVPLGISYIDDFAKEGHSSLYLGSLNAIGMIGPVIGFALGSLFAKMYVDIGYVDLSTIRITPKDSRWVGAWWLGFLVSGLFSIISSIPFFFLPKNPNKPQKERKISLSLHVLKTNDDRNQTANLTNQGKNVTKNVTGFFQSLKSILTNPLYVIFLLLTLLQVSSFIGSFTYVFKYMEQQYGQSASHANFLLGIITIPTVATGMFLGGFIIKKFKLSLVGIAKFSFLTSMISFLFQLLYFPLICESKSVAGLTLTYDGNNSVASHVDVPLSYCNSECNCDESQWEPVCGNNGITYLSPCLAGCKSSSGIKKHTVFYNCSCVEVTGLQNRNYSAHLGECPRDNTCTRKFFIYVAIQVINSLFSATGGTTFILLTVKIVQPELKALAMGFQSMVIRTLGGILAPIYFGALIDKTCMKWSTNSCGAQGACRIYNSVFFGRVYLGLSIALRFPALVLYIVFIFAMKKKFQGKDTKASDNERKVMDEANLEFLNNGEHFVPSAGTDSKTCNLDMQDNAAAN
Description: The competitive inhibition of specific transporters was investigated for RVT-1201 and KAR5417 in transporter-expressing in vitro systems (XT158039). Inhibition of P-gp was evaluated using a Caco-2 cell line with digoxin as probe substrate. Inhibition of OATP1B1 and OATP1B3 was evaluated using a HEK293 cell line expressing these transporters with estradiol-17β-glucuronide as probe substrate. In addition, inhibition of other transporters was also investigated (BCRP, OAT1, OAT3, OCT2, MATE1, MATE2-K). The IC50 estimates for P-gp (RVT-1201) and OATP1B1/3 (RVT-1201 and KAR5417) supported further evaluation of inhibition DDI potential using the PBPK model. For each IC50 estimate, substrate concentration and Km were used to estimate RVT-1201 and KAR5417 Ki with Equation 1 (Cheng and Prusoff, 1973).

MRP2 = MRP2 (Homo sapiens, UniProt Q92887); test: In vitro transporter substrate assessment; type: in vitro ADME
Text: (§1) Consequently, the elimination of rodatristat into bile may be impacted by co-administration with agents that are BCRP inhibitors.

OATP1B3 [2] = target: T1, OATP1B3; test: In vitro transporter substrate assessment; type: in vitro ADME
Text: as §1

[3] = Clinical pharmacokinetics in healthy subjects (Studies RVT-1201-1001 and KAR5585-101); type: in vivo, human
Description: Clinical Study RVT-1201-1001 was a single and repeat dose study of RVT-1201 in healthy subjects to evaluate the pharmacokinetic profile of RVT-1201 and its active metabolite KAR5417. In Part 1 of this study, a single oral dose of 400 mg RVT-120 was administered as an oral powder in Regimen A and B, and as immediate release tablets in Regimen C, to 9 healthy male subjects. In addition, a single 1200 mg dose as immediate release tablets was administered in Regimen D.
Following oral administration in the fed state, RVT-1201 was well absorbed and peak plasma levels were achieved after a median time of 2.5 h. […] The planned clinical dose schedule of RVT-1201 in ELEVATE2 is up to 600 mg BID. […] The geometric mean apparent clearance was 900 L/h after oral administration in Regimen C of Clinical Study RVT-1201-1001. Elimination of RVT-1201 was rapid, and primarily facilitated by hydrolysis to KAR5417. Formation of KAR5417 was attributed to de-esterification of RVT-1201.
KAR5417 is rapidly formed after oral administration of RVT-1201.
Data from two clinical studies were used to verify the PBPK model (Clinical Study KAR5585-101 and Clinical Study RVT-1201-1001). Clinical Study KAR5585-101 was a randomized, double blind, placebo-controlled, Phase 1, first-in-human study to characterize the pharmacokinetics of single and multiple ascending doses of RVT-1201 in healthy subjects. RVT-1201 and KAR5417 plasma concentration data on Day 1, 7 and 14 of 400 mg BID administration in fed subjects were used to support verification of the PBPK model. In addition, multiple dose RVT-1201 and KAR5417 plasma concentration data on Day 1, 7 and 14 of 400 mg or 800 mg BID administration in fed subjects in Clinical Study RVT-1201-1001 were also used to support model verification.

Chain of MRP2 (Q92887 whole entry): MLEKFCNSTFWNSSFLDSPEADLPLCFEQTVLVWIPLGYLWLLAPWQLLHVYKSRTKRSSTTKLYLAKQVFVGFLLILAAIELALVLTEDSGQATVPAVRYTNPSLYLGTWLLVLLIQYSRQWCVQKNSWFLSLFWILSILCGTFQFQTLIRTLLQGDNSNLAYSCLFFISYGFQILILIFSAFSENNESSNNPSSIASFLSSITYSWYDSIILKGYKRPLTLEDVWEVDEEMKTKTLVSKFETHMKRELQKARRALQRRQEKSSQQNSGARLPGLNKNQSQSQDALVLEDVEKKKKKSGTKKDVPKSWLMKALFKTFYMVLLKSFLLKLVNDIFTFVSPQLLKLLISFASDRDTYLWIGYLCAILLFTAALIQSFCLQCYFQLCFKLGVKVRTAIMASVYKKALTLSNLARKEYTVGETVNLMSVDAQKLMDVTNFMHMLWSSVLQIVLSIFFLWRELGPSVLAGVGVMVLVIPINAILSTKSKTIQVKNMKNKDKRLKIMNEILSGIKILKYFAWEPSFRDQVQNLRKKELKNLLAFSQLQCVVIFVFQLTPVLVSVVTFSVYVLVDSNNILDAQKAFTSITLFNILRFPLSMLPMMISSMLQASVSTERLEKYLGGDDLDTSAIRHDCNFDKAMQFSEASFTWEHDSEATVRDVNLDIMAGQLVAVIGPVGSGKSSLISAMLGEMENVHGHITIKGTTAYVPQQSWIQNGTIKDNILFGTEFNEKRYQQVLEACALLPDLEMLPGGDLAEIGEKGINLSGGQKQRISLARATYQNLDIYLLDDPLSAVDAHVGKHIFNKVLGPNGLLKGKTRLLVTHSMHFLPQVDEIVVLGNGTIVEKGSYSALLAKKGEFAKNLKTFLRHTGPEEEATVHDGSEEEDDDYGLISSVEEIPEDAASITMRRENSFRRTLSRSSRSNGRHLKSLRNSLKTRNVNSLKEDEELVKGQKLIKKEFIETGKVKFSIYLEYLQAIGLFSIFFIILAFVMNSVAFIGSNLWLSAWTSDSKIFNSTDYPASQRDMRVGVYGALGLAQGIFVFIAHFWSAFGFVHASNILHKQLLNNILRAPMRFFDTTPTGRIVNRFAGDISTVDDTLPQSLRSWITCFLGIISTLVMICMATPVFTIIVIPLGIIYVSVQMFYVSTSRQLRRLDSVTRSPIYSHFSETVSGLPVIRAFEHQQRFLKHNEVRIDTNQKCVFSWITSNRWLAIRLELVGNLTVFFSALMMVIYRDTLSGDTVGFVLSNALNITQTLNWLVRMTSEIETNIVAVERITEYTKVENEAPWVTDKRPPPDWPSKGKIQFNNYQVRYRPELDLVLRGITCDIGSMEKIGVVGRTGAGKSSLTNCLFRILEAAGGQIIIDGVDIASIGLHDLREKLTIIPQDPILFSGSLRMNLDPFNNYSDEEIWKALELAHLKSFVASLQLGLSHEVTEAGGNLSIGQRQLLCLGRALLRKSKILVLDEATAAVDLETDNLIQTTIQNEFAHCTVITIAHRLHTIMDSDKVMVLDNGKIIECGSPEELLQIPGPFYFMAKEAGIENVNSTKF
Chain of CYP2C19 (P33261 whole entry, canonical isoform): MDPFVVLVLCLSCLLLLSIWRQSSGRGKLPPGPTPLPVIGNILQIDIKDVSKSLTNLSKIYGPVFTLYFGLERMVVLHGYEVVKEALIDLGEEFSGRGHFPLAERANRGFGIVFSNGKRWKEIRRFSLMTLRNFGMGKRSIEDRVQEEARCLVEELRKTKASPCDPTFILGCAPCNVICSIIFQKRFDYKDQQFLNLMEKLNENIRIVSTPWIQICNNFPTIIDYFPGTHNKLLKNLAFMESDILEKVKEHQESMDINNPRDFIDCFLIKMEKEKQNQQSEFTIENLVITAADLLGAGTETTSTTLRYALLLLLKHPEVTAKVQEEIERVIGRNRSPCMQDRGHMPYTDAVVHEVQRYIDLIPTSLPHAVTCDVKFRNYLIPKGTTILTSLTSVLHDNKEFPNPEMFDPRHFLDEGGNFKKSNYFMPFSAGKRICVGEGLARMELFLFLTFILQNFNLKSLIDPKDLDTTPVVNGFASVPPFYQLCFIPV

CCOC(=O)[C@@H]1CC2(CCN(c3cc(O[C@H](c4ccc(Cl)cc4-c4ccccc4)C(F)(F)F)nc(N)n3)CC2)CN1 [Rodatristat ethyl, (S)-ethyl 8-(2-amino-6-((R)-1-(5-chloro-[1,1′-biphenyl]-2-yl)-2,2,2-trifluoroethoxy)pyrimidin-4-yl)-2,8-diazaspiro[4.5]decane-3-carboxylate]
In vitro substrate? CYP2C19 (CYP2C19): No | Time-dependent inhibition of CYP isoforms (CYP isoforms): not time-dependent CYP inhibitors | Calculated Values, R-value, OATP1B3 (OATP1B3 [1]): <1.1 | Potential for interaction? (transporter inhibitor), OATP1B3 (OATP1B3 [1]): No | Calculated Values, R-value, OATP1B3 (OATP1B3 [1]; listed as rodatristat ethyl): < 1.1 | IC50 (OATP1B3 [1]): 12.3 µM | In vitro substrate? MRP2 (MRP2): not a substrate; also recorded: not likely | In vitro substrate? OATP1B3 (OATP1B3 [2]): not a substrate and No | half-life ([3]; human, plasma, oral, 400 mg BID dosing, read-out: Average geometric mean plasma terminal t1/2 (converted)): 5.2 h | Geometric mean apparent clearance ([3]; oral, Regimen C (400 mg single dose, fed)): 900 L/h | Median time to peak plasma levels ([3]; oral, fed state, healthy subjects): 2.5 h | Accumulation after multiple dosing ([3]; twice daily schedule, up to 600 mg BID, expected): < 1.5 fold

Nc1nc(O[C@H](c2ccc(Cl)cc2-c2ccccc2)C(F)(F)F)cc(N2CCC3(CC2)CN[C@H](C(=O)O)C3)n1 [Rodatristat, (S)-8-(2-amino-6-((R)-1-(5-chloro-[1,1′-biphenyl]-2-yl)-2,2,2-trifluoroeth-oxy)pyrimidin-4-yl)-2,8-diazaspiro[4.5]decane-3-carboxylic acid]
In vitro substrate? CYP2C19 (CYP2C19): No | Time-dependent inhibition of CYP isoforms (CYP isoforms; listed as rodatristat): not time-dependent CYP inhibitors | Calculated Values, R-value, OATP1B3 (OATP1B3 [1]): 1.26 | Potential for interaction? (transporter inhibitor), OATP1B3 (OATP1B3 [1]): Yes | IC50 (OATP1B3 [1]): 1.93 µM | In vitro substrate? MRP2 (MRP2): not an in vitro substrate; also recorded: Not likely | In vitro substrate? OATP1B3 (OATP1B3 [2]): is an in vitro substrate and Yes | Accumulation by OATP1B3 uptake transporter (OATP1B3 [2]; 3 μM): 9.28 fold | Cmax greater than the Cmax of RVT-1201 ([3]; Regimen C, 400 mg single dose of RVT-1201): approximately 5 fold | half-life ([3]; male, human, plasma, 400 mg, after oral RVT-1201, Regimen C, read-out: Geometric mean plasma terminal t1/2 (converted)): 12.3 h | Cmax ([3]; male, human, plasma, oral, Regimen C, 400 mg single dose of RVT-1201, read-out: Geometric mean Cmax): 517 ng/mL | Tmax ([3]; male, human, plasma, oral, Regimen C, 400 mg single dose of RVT-1201, read-out: Median Tmax): 3.5 h
